Source: patent US20240228448A1 (Washington University, priority 2021, published 2024)
Like-named read-outs stand apart in the source and are kept apart here.

Columns and labels:
S1P2 = S1P2 (Homo sapiens, UniProt O95136); test: competitive S1Ps cell membrane binding assay against [32P]S1P, S1P2; details: Table 6
S1P1 [1] = molecular target: S1P1 (Homo sapiens, UniProt P21453); test: competitive S1Ps cell membrane binding assay against [32P]S1P, S1P1; details: for IC50 for S1P1 (nM): Table 6, single determinations
Chain of S1P1 (Homo sapiens, UniProt P21453) (P21453 whole entry, species assumed): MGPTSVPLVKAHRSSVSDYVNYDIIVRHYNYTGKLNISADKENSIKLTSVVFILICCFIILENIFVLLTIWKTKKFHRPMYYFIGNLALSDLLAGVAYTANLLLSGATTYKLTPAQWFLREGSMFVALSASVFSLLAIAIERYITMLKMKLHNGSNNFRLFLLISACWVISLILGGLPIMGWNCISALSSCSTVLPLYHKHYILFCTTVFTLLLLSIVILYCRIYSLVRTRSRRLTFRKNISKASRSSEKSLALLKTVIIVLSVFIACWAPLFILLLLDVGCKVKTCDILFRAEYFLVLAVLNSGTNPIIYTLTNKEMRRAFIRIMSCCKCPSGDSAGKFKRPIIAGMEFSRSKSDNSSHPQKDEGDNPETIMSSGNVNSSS
From the text: (§2) One way to measure affinity is use of a general competition binding assay.

S1P5 = S1P5 (Homo sapiens, UniProt Q9H228); test: competitive S1Ps cell membrane binding assay against [32P]S1P, S1P5
Chain of S1P5 (Q9H228 whole entry, species assumed): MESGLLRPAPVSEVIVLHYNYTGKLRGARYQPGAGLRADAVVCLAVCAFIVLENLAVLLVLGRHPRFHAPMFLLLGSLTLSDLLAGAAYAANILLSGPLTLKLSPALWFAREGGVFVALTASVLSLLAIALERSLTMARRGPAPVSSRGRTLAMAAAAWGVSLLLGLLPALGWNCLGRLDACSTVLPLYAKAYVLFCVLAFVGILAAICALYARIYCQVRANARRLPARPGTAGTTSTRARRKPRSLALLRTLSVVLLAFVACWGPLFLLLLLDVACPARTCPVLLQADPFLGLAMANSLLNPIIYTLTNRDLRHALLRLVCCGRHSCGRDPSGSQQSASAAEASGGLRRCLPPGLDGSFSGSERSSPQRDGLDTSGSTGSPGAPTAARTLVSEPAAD
From the text: as §2

S1P4 = molecular target: T1, S1P4 (Homo sapiens, UniProt O95977); test: competitive S1Ps cell membrane binding assay against [32P]S1P, S1P4; details: Table 6; read-out: IC50 for S1P4
T1 sequence (O95977 1-384): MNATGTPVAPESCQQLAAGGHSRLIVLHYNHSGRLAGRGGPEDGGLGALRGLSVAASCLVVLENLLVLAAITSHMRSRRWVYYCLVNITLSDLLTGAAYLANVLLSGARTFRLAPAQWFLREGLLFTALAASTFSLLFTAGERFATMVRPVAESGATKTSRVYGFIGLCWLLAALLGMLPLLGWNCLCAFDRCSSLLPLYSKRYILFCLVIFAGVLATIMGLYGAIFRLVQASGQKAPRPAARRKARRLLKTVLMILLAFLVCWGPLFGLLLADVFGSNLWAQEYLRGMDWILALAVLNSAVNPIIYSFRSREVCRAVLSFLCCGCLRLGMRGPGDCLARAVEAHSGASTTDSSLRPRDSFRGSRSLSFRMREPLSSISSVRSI

S1P3 = S1P3 (Homo sapiens, UniProt Q99500); test: competitive S1Ps cell membrane binding assay against [32P]S1P, S1P3; details: Table 6
Chain of S1P3 (Q99500 whole entry, species assumed): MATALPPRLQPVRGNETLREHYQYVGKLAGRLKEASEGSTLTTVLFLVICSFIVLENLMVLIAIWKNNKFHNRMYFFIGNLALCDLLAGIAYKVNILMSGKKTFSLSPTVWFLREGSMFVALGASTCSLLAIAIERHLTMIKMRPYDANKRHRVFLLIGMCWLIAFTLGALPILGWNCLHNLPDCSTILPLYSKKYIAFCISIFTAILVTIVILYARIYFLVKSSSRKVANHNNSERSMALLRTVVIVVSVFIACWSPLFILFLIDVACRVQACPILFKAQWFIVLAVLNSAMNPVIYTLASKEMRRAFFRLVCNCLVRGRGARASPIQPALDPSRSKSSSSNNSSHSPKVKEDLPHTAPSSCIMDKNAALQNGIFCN

S1P2-5 = test: competitive S1Ps cell membrane binding assay against [32P]S1P, S1P2-5 reported together; details: for selectivity over S1P2-5: in words
From the text: as §2

S1P1 [2] = molecular target: T2, S1P1 (Mus musculus, UniProt O08530); test: PET with [18F]TZ4877 in S. aureus infected mice; format: in vivo; details: microPET, in words
T2 construct: from tissue; host or cells: living mice (whole body, brain, tissues)
T2 sequence (O08530 whole entry): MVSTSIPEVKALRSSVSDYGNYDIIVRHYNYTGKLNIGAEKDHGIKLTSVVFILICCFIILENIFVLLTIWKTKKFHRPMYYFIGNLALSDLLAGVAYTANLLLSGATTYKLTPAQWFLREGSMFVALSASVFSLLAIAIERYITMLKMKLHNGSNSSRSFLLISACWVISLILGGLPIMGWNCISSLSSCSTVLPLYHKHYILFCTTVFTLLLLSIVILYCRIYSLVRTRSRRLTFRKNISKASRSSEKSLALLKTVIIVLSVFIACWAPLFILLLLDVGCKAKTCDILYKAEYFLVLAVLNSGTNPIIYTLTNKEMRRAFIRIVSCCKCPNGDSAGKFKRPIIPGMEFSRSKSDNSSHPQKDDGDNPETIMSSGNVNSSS
Procedure: Mice were euthanized at 30 min, and S. aureus was injected 24 hours prior to radiotracer injection. […] IHC staining was used for confirmation in infected versus sham controls (FIG. 12E). Increasing signals of the inflammation related cytokines and chemokines were detected in liver.

[3] = Ex-vivo rat biodistribution and EAE rat PET studies of [18F]TZ82112; details: in words
S1PR1 = test: NHP PET brain imaging blocking studies; format: in vivo, nonhuman primate; details: NHP PET self-blocking, in words
[4] = HPLC radiometabolite analysis of rat plasma and rat brain, [18F]TZ82112; format: in vivo; details: in words
From the text: (§1) Considering the high NHP brain uptake and clinically favorable pharmacokinetics compared to other F-18 S1PR1 radiotracers such as [^18F]FCS1P1 and [^18F]4877, we believe [^18F]TZ82112 is worth to transfer into clinical evaluation to confirm [18F]TZ82112 is the best S1PR1 radiotracer for clinical assessment of the neuroinflammation status by measurement of the S1PR1 receptor expression level. On the other side, as a S1PR1 radiotracer, [^18F]TZ82112 has its limitation for preclinical investigation because it quickly metabolites to form a lipophilic radiometabolite which will increase noise signal for PET measurement of S1PR1 expression in inflamed tissues.

[5] = HPLC radiometabolite analysis of nonhuman primate plasma, [18F]TZ82112; format: in vivo; details: NHP plasma compared with rat plasma, in words
From the text: as §1

[6] = read-out: IC50 (nM) S1P1, Table 7
[7] = Table 5, read-out: IC50 (nM) S1P5
[8] = Table 7, read-out: IC50 (nM) S1P2-5

Chain of S1P2 (O95136 whole entry, species assumed): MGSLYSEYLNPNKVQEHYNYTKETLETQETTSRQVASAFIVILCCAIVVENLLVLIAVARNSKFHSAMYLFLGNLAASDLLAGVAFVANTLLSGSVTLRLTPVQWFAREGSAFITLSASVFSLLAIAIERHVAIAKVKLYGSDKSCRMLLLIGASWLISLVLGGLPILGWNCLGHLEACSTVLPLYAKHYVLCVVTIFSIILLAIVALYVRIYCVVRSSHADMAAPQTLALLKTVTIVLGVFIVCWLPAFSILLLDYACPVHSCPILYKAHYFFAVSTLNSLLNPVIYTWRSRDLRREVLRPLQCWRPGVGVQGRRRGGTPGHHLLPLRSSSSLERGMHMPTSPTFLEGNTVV

Row | IC50 (S1P2) | IC50 (S1P1 [1]; IC50 for S1P1, running text) | IC50 for S1P1 (nM) (S1P1 [1]) | IC50 (S1P1 [1]; [6]) | IC50 (S1P5; [7]) | IC50 for S1P5 (nM) (S1P5; Table 6) | IC50 (S1P4) | IC50 for S1P3 (nM) (S1P3) | IC50 (S1P2-5; [8]) | IC50 (S1P5; Table 6, read-out: IC50 for S1P5) | IC50 (S1P3) | brain uptake, infected versus sham mice (S1P1 [2]) | IC50 (S1P2-5; read-out: IC50 for S1P2-5) | radiometabolite in brain tissue ([4]; rat brain tissue samples) | percentage of the same radiometabolite in plasma [5] | SMILES | selectivity over S1P2-5 (S1P2-5) | spinal cord uptake compared to the normal controls ([3]; EAE rat model of MS, PET) | brain uptake and washout ([3]; ex-vivo rat biodistribution) | brain uptake after pretreatment with cold TZ82112 (S1PR1) | radiometabolite in plasma ([4]; rat plasma)
1 | > 1000 nM | < 20 nM | Not detected | 7.6 ± 0.2 nM | 77.3 nM | Not fit | > 1000 nM | Not fit | > 1000 nM | – | – | – | – | – | – | Cc1ccccc1-c1ccc(-c2nc(-c3ccc(CN(C)CC(=O)O)c(F)c3)no2)cc1C(F)(F)F [TZ82-47] | good selectivity | – | – | – | –
2 | > 1000 nM | < 20 nM | Not detected | 0.8 ± 0.2 nM | 23.1 nM | – | > 1000 nM | – | > 1000 nM | 194 nM | 189 nM | – | – | – | – | Cc1ccccc1-c1ccc(-c2nc(-c3ccc(CN(C)CCCC(=O)O)c(F)c3)no2)cc1C(F)(F)F [TZ82-48] | good selectivity | – | – | – | –
3 | – | – | – | – | – | – | – | – | – | – | – | higher uptake in infected mice | > 1000 nM | – | – | OCCOCc1ccc(-c2noc(-c3ccc(OCC[18F])c(C(F)(F)F)c3)n2)cc1 [[^18F]TZ4877] | – | – | – | – | –
4 | – | – | – | – | – | – | – | – | – | – | – | – | – | no radioactive metabolite | much lower | CN(CCCO)Cc1ccc(-c2noc(-c3ccc(OCC[18F])c(C(F)(F)F)c3)n2)cc1F [[^18F]TZ82112] | – | increased spinal cord uptake | high initial brain uptake and good brain washout kinetics | reduce the its brain uptake | quickly generated a high percentage of a radiometabolite
